Experimental findings from US11958812B2, “3, 5-disubstituted pyridine and 3, 5-disubstituted pyridazine derivatives and pharmaceutical use of same” (MITSUBISHI TANABE PHARMA CORPORATION, priority 2018, dated 2024) are described below.

The target of this experiment is human recombinant ATX (Homo sapiens, UniProt Q13822). The experiment in a line: Enzyme inhibition test (choline release from LPC, Amplex UltraRed fluorescence). The class given is biochemical. Particulars: 200 μM LPC substrate, 1 hr at room temperature, read-out: Experimental Example 1 human ATX IC50. Here is the method:
[Enzyme Inhibition Test Method]
A mixture (10 μL) of substrate and a set of choline quantification reagents (200 μM LPC (1-Oleoyl-sn-glycero-3-phosphocholine Sigma #L1881), 25 μM Amplex UltraRed reagent (Invitrogen), 0.1 U/mL Peroxidase (TOYOBO), 1 U/mL Choline oxidase (TOYOBO)), prepared with assay buffer (50 mM Tris (pH 8.0), 140 mM NaCl, 5 mM KCl, 1 mM CaCl2, 1 mM MgCl2, 0.1% BSA (Albumin from bovine serum, SIGMA), 0.0025% Triton X-100), enzyme (0.4 ng/μL human recombinant ATX) (10 μL), compound-containing solution (100 nL) were dispensed to a 384-well plate, incubated at room temperature for 1 hr and the fluorescence (Ex. 525 nm/Em. 598 nm) was measured. As the standard, choline chloride was used. With a blank free of enzyme was taken as inhibitory rate 100%, and a control free of inhibitor as inhibitory rate 0%, the inhibitory rate was calculated, and IC50 value was calculated from the inhibitory activity percentage at each concentration.

The structures appear in SMILES notation.

For `COc1ccc(-c2cnnc(COc3ccc(C(F)(F)F)cc3)c2)cc1[C@@H]1C[C@H]1C(=O)O` (relative stereo) [Example 3, trans-2-[2-methoxy-5-(6-{[4-(trifluoromethyl)phenoxy]methyl}pyridazin-4-yl)phenyl]cyclopropanecarboxylic Acid], the IC50 came out at 35 nM.
With `COc1ccc(-c2cnnc(CCc3ccc(OC(F)(F)F)cc3)c2)cc1[C@@H]1C[C@H]1C(=O)O` (relative stereo) [Example 4, trans-2-[2-methoxy-5-(6-{2-[4-(trifluoromethoxy)phenyl]ethyl}pyridazin-4-yl)phenyl]cyclopropanecarboxylic Acid] the figure was 17 nM; with `C[C@@]1(C(=O)O)C[C@H]1[C@H]1CN(c2cncc(OC[C@H]3CC[C@H](C(F)(F)F)CC3)c2)CCO1` (relative stereo) [Example 20, trans-1-methyl-2-[(2S)-4-(5-{[trans-4-(trifluoromethyl)cyclohexyl]methoxy}pyridin-3-yl)morpholin-2-yl]cyclopropanecarboxylic Acid], 2 nM.
With `O=C(O)/C=C/CC1COCCN1c1cncc(OCc2ccc(OC(F)(F)F)cc2)c1` (single isomer, unassigned) [Example 22-2] the figure was 74 nM.
As for `COc1ccc(-c2cnnc(OC[C@H]3CC[C@H](C(F)(F)F)CC3)c2)nc1[C@H]1C[C@]1(C)C(=O)O` [Example 7-1, (1S,2S)-2-[3-methoxy-6-(6-{[trans-4-(trifluoromethyl)cyclohexyl]methoxy}pyridazin-4-yl)pyridin-2-yl]-1-methylcyclopropanecarboxylic Acid], the figure is 1 nM; as for `COc1ccc(-c2cnnc(OC[C@H]3CC[C@H](C(F)(F)F)CC3)c2)nc1[C@@H]1C[C@@]1(C)C(=O)O` [Example 7-2, (1R,2R)-2-[3-methoxy-6-(6-{[trans-4-(trifluoromethyl)cyclohexyl]methoxy}pyridazin-4-yl)pyridin-2-yl]-1-methylcyclopropanecarboxylic Acid], 2 nM.
In the case of `O=C(O)[C@H]1C[C@@H]1c1cc(-c2cnnc(OC[C@H]3CC[C@H](C(F)(F)F)CC3)c2)ccn1` [Example 10-1, (1S,2S)-2-[4-(6-{[trans-4-(trifluoromethyl)cyclohexyl]methoxy}pyridazin-4-yl)pyridin-2-yl]cyclopropanecarboxylic Acid], the IC50 came to 1 nM.
With `O=C(O)[C@@H]1C[C@H]1c1cc(-c2cnnc(OC[C@H]3CC[C@H](C(F)(F)F)CC3)c2)ccn1` [Example 10-2, (1R,2R)-2-[4-(6-{[trans-4-(trifluoromethyl)cyclohexyl]methoxy}pyridazin-4-yl)pyridin-2-yl]cyclopropanecarboxylic Acid] the figure was 3 nM; with `O=C(O)[C@H]1C[C@@H]1c1cc(-c2cncc(OCc3ccc(OC(F)(F)F)cc3)c2)ccn1` [Example 11-1, (1S,2S)-2-(5-{[4-(trifluoromethoxy)benzyl]oxy}-3,4′-bipyridin-2′-yl)cyclopropanecarboxylic Acid], 10 nM.
As for `O=C(O)[C@@H]1C[C@H]1c1cc(-c2cncc(OCc3ccc(OC(F)(F)F)cc3)c2)ccn1` [Example 11-2, (1R,2R)-2-(5-{[4-(trifluoromethoxy)benzyl]oxy}-3,4′-bipyridin-2′-yl)cyclopropanecarboxylic Acid], the figure is 25 nM; as for `CC(C[C@H]1CN(c2cncc(OCc3ccc(OC(F)(F)F)cc3)c2)CCO1)C(=O)O` (stereo partly drawn) [Example 17, 2-methyl-3-[(2S)-4-(5-{[4-(trifluoromethoxy)benzyl]oxy}pyridin-3-yl)morpholin-2-yl]propanoic Acid], 56 nM.
`O=C(O)CC[C@H]1CN(c2cncc(CCc3ccc(OC(F)(F)F)cc3)c2)CCO1` [Example 18-1, 3-[(2S)-4-(5-{2-[4-(trifluoromethoxy)phenyl]ethyl}pyridin-3-yl)morpholin-2-yl]propanoic Acid]: the IC50 came out at 133 nM.
As for `O=C(O)COC[C@@H]1COCCN1c1cncc(OCc2ccc(OC(F)(F)F)cc2)c1` [Example 21, {[(3S)-4-(5-{[4-(trifluoromethoxy)benzyl]oxy}pyridin-3-yl)morpholin-3-yl]methoxy}acetic Acid], the figure is 56 nM; as for `O=C(O)COC[C@H]1CCCN1c1cncc(OCc2ccc(OC(F)(F)F)cc2)c1` [Example 24, {[(2R)-1-(5-{[4-(trifluoromethoxy)benzyl]oxy}pyridin-3-yl)pyrrolidin-2-yl]methoxy}acetic Acid], 13 nM; as for `COc1ccc(-c2cncc(/C=C\c3ccc(OC(F)(F)F)cc3)c2)nc1[C@H]1C[C@@H]1C(=O)O` [Example 27], 56 nM.
As for `COc1ccc(-c2cncc(/C=C/c3ccc(OC(F)(F)F)cc3)c2)nc1[C@H]1C[C@@H]1C(=O)O` [Example 28], the figure is 4 nM; as for `CCOc1ccc(-c2cnnc(OCC3CCN(CC(F)(F)F)CC3)c2)cc1[C@H]1C[C@@H]1C(=O)O` [Example 30], 2 nM.
As for `COc1ccc(-c2cncc(OCc3cccc(Cl)c3)c2)cc1C1CC1C(=O)O` (stereo not drawn) [Example 32], the IC50 turned out to be 26 nM.
As for `COc1ccc(-c2cncc(OCc3cccc(OC(F)(F)F)c3)c2)cc1C1CC1C(=O)O` (stereo not drawn) [Example 33], the figure is 57 nM; as for `COc1ccc(-c2cncc(OCc3ccccc3)c2)cc1C1CC1C(=O)O` (stereo not drawn) [Example 34], 121 nM.
As for `O=C(O)c1ccc2c(c1)N(c1cncc(OC[C@H]3CC[C@H](C(F)(F)F)CC3)c1)CC2` [Example 35], the figure is 1 nM; as for `O=C(O)c1ccc2c(c1)CCN2c1cncc(OCc2ccc(OC(F)(F)F)cc2)c1` [Example 36], 6 nM.
As to `O=C(O)c1ccc2c(c1)N(c1cncc(OCc3ccc(OC(F)(F)F)cc3)c1)CC2` [Example 37], the IC50 was 8 nM.
With `O=C(O)c1cccc2c1CCN2c1cncc(OCc2ccc(OC(F)(F)F)cc2)c1` [Example 38] the figure was 382 nM.
With `O=C(O)c1ccc2c(c1)OCCN2c1cncc(OCc2ccc(OC(F)(F)F)cc2)c1` [Example 40] the figure was 12 nM.
As for `O=C(O)c1ccc2c(c1)CCCN2c1cncc(OCc2ccc(OC(F)(F)F)cc2)c1` [Example 41], the IC50 came out at 31 nM.
Consider `O=C(O)c1ccc(C2CN(c3cncc(OCc4ccc(OC(F)(F)F)cc4)c3)CCO2)cc1` (stereo not drawn) [Example 42], for which the IC50 was 8 nM.
With `O=C(O)c1cccc(C2CN(c3cncc(OCc4ccc(OC(F)(F)F)cc4)c3)CCO2)c1` (stereo not drawn) [Example 43] the figure was 13 nM; with `O=C(O)c1ccccc1C1CN(c2cncc(OCc3ccc(OC(F)(F)F)cc3)c2)CCO1` (stereo not drawn) [Example 44], 350 nM; with `COc1ccc(C2CN(c3cncc(OC[C@H]4CC[C@H](C(F)(F)F)CC4)c3)CCO2)cc1C(=O)O` (stereo partly drawn) [Example 47], 3 nM.
As for `COc1ccc(C2CN(c3cncc(OCC4CCN(CC(F)(F)F)CC4)c3)CCO2)cc1C(=O)O` (stereo not drawn) [Example 48], the IC50 worked out at 35 nM.
With `O=C(O)c1ccc(C2CN(c3cncc(OC[C@H]4CC[C@H](C(F)(F)F)CC4)c3)CCO2)cn1` (stereo partly drawn) [Example 49] the figure was 3 nM; with `O=C(O)c1ccc(C2CN(c3cncc(OC[C@H]4CC[C@H](C(F)(F)F)CC4)c3)CCO2)nc1` (stereo partly drawn) [Example 50], 10 nM; with `O=C(O)c1ccnc(C2CN(c3cncc(OC[C@H]4CC[C@H](C(F)(F)F)CC4)c3)CCO2)c1` (stereo partly drawn) [Example 51], 5 nM.
With `O=C(O)c1cncc(C2CN(c3cncc(OC[C@H]4CC[C@H](C(F)(F)F)CC4)c3)CCO2)c1` (stereo partly drawn) [Example 52] the figure was 7 nM.
As for `COc1cc(C2CN(c3cncc(OC[C@H]4CC[C@H](C(F)(F)F)CC4)c3)CCO2)cnc1C(=O)O` (stereo partly drawn) [Example 53], the figure is 1 nM.
Take `COc1cc(C2CN(c3cncc(OC[C@H]4CC[C@H](C(F)(F)F)CC4)c3)CCO2)ncc1C(=O)O` (stereo partly drawn) [Example 54]: the IC50 worked out at 5 nM.
As for `Cc1cc(C2CN(c3cncc(OC[C@H]4CC[C@H](C(F)(F)F)CC4)c3)CCO2)cnc1C(=O)O` (stereo partly drawn) [Example 55], the figure is 2 nM.
With `Cc1cc(C2CN(c3cncc(OC[C@H]4CC[C@H](C(F)(F)F)CC4)c3)CCO2)ncc1C(=O)O` (stereo partly drawn) [Example 56] the figure was 7 nM; with `Cc1nc(C2CN(c3cncc(OC[C@H]4CC[C@H](C(F)(F)F)CC4)c3)CCO2)ccc1C(=O)O` (stereo partly drawn) [Example 57], 7 nM.
With `Cc1ccc(C2CN(c3cncc(OC[C@H]4CC[C@H](C(F)(F)F)CC4)c3)CCO2)nc1C(=O)O` (stereo partly drawn) [Example 58] the figure was 4 nM.
`Cc1ncc(C2CN(c3cncc(OC[C@H]4CC[C@H](C(F)(F)F)CC4)c3)CCO2)cc1C(=O)O` (stereo partly drawn) [Example 59]: the IC50 was 5 nM.
With `Cc1cnc(C2CN(c3cncc(OC[C@H]4CC[C@H](C(F)(F)F)CC4)c3)CCO2)cc1C(=O)O` (stereo partly drawn) [Example 60] the figure was 5 nM; with `Cc1cnc(C2CN(c3cncc(OC[C@H]4CC[C@H](C(F)(F)F)CC4)c3)CCO2)cc1C(=O)O` (stereo partly drawn) [Example 61], 15 nM.
As for `O=C(O)c1cc(C2CN(c3cncc(OC[C@H]4CC[C@H](C(F)(F)F)CC4)c3)CCO2)ncc1C(F)(F)F` (stereo partly drawn) [Example 62], the figure is 1 nM; as for `O=C(O)c1ccc(C2CN(c3cncc(OCc4ccc(OC(F)(F)F)cc4)c3)CCO2)nc1` (stereo not drawn) [Example 63], 7 nM; as for `O=C(O)c1cncc(C2CN(c3cncc(OCc4ccc(OC(F)(F)F)cc4)c3)CCO2)c1` (stereo not drawn) [Example 64], 1 nM.
As for `O=C(O)c1ccnc(C2CN(c3cncc(OCc4ccc(OC(F)(F)F)cc4)c3)CCO2)c1` (stereo not drawn) [Example 65], the figure is 16 nM.
